Source: paper PMC5650142, “GPR40 partial agonists and AgoPAMs: Differentiating effects on glucose and hormonal secretions in the rodent” (PLoS ONE, 2017)
“And” between values parts separate entries of the source, which are not always exact repeats. Identical values can stand only once. Like-named read-outs stand apart in the source and are kept apart here.

What was measured:
[1] = test system: GK rats; experiment: GK rat acute efficacy (glucose, insulin, glucagon after single dose); type: in vivo; settings: 30 mpk
Experimental: Ambient blood glucose was measured via tail snip with a glucometer (OneTouch Ultra, Lifescan Inc., Milpitas, CA). Body weights were then measured, and food was removed approximately 1 hr post lights on. Animals were sorted into treatment groups based on ambient glucose. At approximately 10 AM, glucose was measured and blood for insulin, glucagon, and drug exposure was collected. […] Each compound tested was dosed at its maximal effective dose determined through a series of dose titrations using this experimental paradigm (data not shown). Effects of treatment on glucose, insulin, and glucagon were measured at 1, 2, 4, and 24 hrs post dose. After the 4 hr blood collection, food was returned overnight and removed the next day at 1 hr post lights on.
Blood for insulin, glucagon, GLP-1, GIP, and PYY measurements was collected into K2EDTA Microtainer tubes (BD, Franklin Lakes, NJ) pre-treated with DPP4 inhibitor (Millipore, Billerica, MA) and cOmplete™ Protease Inhibitor Cocktail Tablets (Roche Diagnostics, Indianapolis, IN). Tubes were centrifuged for 10 minutes at 5000 RPM, and plasma was aliquotted for analysis. Plasma insulin levels were measured via EIA (Mesoscale Discovery ELISA Kit, Gaithersburg MD). Rat plasma total GLP-1 was measured using Total GLP-1 (ver.2) Assay Kit (Cat#: K150JVC). The measurement of active GLP-1 was carried out in a similar manner as that described for total GLP-1 assay with the exception that MSD Active GLP-1 (ver. 2) assay kit (Cat# K150JWC) was used. Rat plasma glucagon was measured using an in-house glucagon assay developed as a MSD format sandwich immunoassay (Merck & Co., Inc., MRL, Kenilworth, NJ USA). The antibody specificity was cross validated via mass- spec using procedures described in Lee et al. Briefly, MSD Streptavidin Gold plates were coated with 2 μg/ml biotin mouse monoclonal antibody generated to glucagon. Test samples were added to the plates and a separate Sulfo- tagged monoclonal antibody was used to detect the captured glucagon protein (2 μg/ml). The ELISA was carried out in the standard reagents in the MSD format. The plate was read on the SECTOR Imager 6000 Reader. Metabolic hormones GIP (Gastric Inhibitory Polypeptide) and PYY (Peptide YY) were measured in rat plasma using the Rat Metabolic Magnetic Bead Panel (EMD Millipore, Billerica, MA). The assay was performed according to manufacturer protocol.

[2] = molecular target: human GPR40 (Homo sapiens, UniProt O14842); experiment: GPR40 binding assay, AgoPAM tracer [3H]25 ([3H]AP9); design: expressed in transfected cells; host or cells: CHO / CHO-K1 cells, membrane preparation;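 on % Bound Normalized to 100: 100% bound is tracer binding in DMSO-only wells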;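 on %Bound: 100% bound is tracer binding in DMSO-only wells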
Experimental: Two small molecule tracers, the partial agonist [3H][…] and the AgoPAM [3H]25, are used to measure compound affinity at each site as described previously. Because of the allosteric coupling of the two sites and the nature of the assay, addition of a compound will either displace (binds to same site) or augment (binds to allosterically coupled site) radiotracer. Membranes expressing GPR40 were prepared from CHO cells stably expressing human GPR40. […] Sigma P8830) and were homogenized in 50 ml aliquots with a motor-driven glass Dounce homogenizer, 15 strokes at 1900 rpm on wet ice, repeating once. Homogenates were centrifuged at 2200 rpm for 10 min at 4°C. Supernatants were carefully removed and pooled. Homogenization and centrifugation were repeated until the debris pellet was translucent to maximize membrane recovery. Supernatants were then centrifuged at […] rpm for 20 min. at 4°C. […] Protein concentration was determined by Pierce BCA kit. […] The beads and membrane mixture is then vigorously mixed for 30 minutes at room temperature prior to addition to the assay. […] Next, 15 μl of the radioligand and 35 μl of the beads/membranes solution is added to each well. The assay plates are then sealed and incubated for 30 minutes at room temperature on an orbital shaker. The plates are allowed to settle for 16 hours and then counted on a TopCount scintillation counter (PE). […] Maximal % bound and IC50 are then determined for each test compound. 5 μg/well membrane together with 200 μg/well of PVT WGA SPA beads (GE #RPNG-0001) were suspended in a white 96 well plate with a final concentration of 50 μl/well in assay buffer (50 mM Tris, 10 mM MgCl2, and 2 mM EDTA). […] The plate is briefly mixed and incubated for 3-18 h at room temperature, before it is read on a MicroBeta plate counter (Perkin Elmer, MS, USA).

[3] = test system: pancreatic islets from wild type and GPR40−/− mice; experiment: Isolated pancreatic islets static GDIS assay (insulin, glucagon secretion); type: cell-based, mouse; design: Islet insulin / Islet insulin, mean: unit not given here; settings: for glucagon secretion from islets: ex vivo; for Islet Glucagon / Islet insulin: individual replicates; for Islet Glucagon, mean / Islet insulin, mean: mean of replicates
Experimental: Pancreatic islets of Langerhans were isolated from wild type and GPR40^−/− mice (littermates) by collagenase digestion and discontinuous Ficoll gradient separation. […] Insulin secretion was determined by a 1-h static incubation in Krebs-Ringer bicarbonate (KRB) buffer in a 96-well format as previously described. […] The buffer was removed from the wells at the end of the incubation and assayed for insulin levels using the Insulin ELISA kit (ALPCO, Salem, NH) and glucagon level using glucagon ELISA kit (ALPCO, Salem, NH).

[4] = radioligand L-005306257, dose 0.318285 nM
[5] = radioligand L-005306257, dose 1.00578 nM
[6] = radioligand L-005306257, dose 3.17827 nM
[7] = radioligand L-005306257, dose 10.0433 nM
[8] = radioligand L-005306257, dose 31.7369 nM
[9] = radioligand L-005306257, dose 100.289 nM
[10] = radioligand L-005306257, dose 316.912 nM
[11] = radioligand L-005306257, dose 1001.44 nM
[12] = radioligand L-005306257, dose 3164.56 nM
[13] = radioligand L-005306257, dose 10000 nM

Chain of human GPR40 (O14842 whole entry): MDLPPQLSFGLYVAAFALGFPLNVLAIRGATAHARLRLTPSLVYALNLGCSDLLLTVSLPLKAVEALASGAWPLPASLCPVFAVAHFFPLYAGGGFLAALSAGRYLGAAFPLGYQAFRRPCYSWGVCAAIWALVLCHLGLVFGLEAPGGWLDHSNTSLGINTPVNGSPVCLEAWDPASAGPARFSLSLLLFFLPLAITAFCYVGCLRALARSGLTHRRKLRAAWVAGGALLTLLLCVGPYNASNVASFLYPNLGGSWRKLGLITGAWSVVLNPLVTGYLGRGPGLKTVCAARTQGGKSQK

Binding Results, % in parentheses, [^3H]AP9 ([2]; WT human GPR40, maximal % (not defined)): (101%) | IC50 ([2]; WT human GPR40, n = 2–13, read-out: Binding Results [IC50, nM], [^3H]AP9): 2.7 ± 0.7 nM | binding of [^3H]25 ([2]; human GPR40 membranes, competition binding): displace | %Act, HUMAN GPR40, Binding Data ([2]; individual determinations, AgoPAM tracer (per Table 2)): 99% and 102% | IC50 ([2]; individual determinations, AgoPAM tracer (per Table 2), read-out: IC50 (nM), HUMAN GPR40, Binding Data): 2.2 nM and 3.2 nM | % Bound Normalized to 100 [2, 4]: 100.21% | %Bound [2, 4]: 94.32% | inhibition at 0.000318285 µM [2, 4]: 5.68% | % Bound Normalized to 100 [2, 5]: 76.16% | %Bound [2, 5]: 70.27% | inhibition at 0.00100578 µM [2, 5]: 29.7% | % Bound Normalized to 100 [2, 6]: 60.56% | %Bound [2, 6]: 54.67% | inhibition at 0.00317827 µM [2, 6]: 45.3% | % Bound Normalized to 100 [2, 7]: 29.85% | %Bound [2, 7]: 23.96% | inhibition at 0.0100433 µM [2, 7]: 76% | % Bound Normalized to 100 [2, 8]: 20.26% | %Bound [2, 8]: 14.37% | inhibition at 0.0317369 µM [2, 8]: 85.6% | % Bound Normalized to 100 [2, 9]: 11.49% | %Bound [2, 9]: 5.60% | inhibition at 0.100289 µM [2, 9]: 94.4% | % Bound Normalized to 100 [2, 10]: 7.10% | %Bound [2, 10]: 1.21% | inhibition at 0.316912 µM [2, 10]: 98.8% | % Bound Normalized to 100 [2, 11]: 8.08% | %Bound [2, 11]: 2.18% | inhibition at 1.00144 µM [2, 11]: 97.8% | % Bound Normalized to 100 [2, 12]: 6.45% | %Bound [2, 12]: 0.56% | inhibition at 3.16456 µM [2, 12]: 99.4% | % Bound Normalized to 100 [2, 13]: 7.75% | %Bound [2, 13]: 1.86% | inhibition at 10 µM [2, 13]: 98.1%
Structure (SMILES): COc1ccc(F)c(-c2ccc([C@@H]3CCc4ccc([C@H](C5CC5)[C@H](C)C(=O)O)cc4O3)cc2)c1 [AP1]
Plasma Glucagon Over Time (Fig 2C) ([1]; time 0, individual animals): 55.7691 pg/mL and 68.321 pg/mL and 77.904 pg/mL and 111.395 pg/mL and 52.9088 pg/mL and 48.0782 pg/mL and 166.643 pg/mL and 75.2113 pg/mL | Plasma Insulin Over Time (Fig 2B) ([1]; time 0, individual animals): 1.368 ng/mL and 2.115 ng/mL and 2.541 ng/mL and 1.628 ng/mL and 3.5154 ng/mL and 1.38 ng/mL and 1.662 ng/mL and 2.024 ng/mL | Plasma Glucagon Over Time (Fig 2C) ([1]; time 1, individual animals): 68.4222 pg/mL and 203.855 pg/mL and 443.444 pg/mL and 510.501 pg/mL and 371.284 pg/mL and 243.688 pg/mL and 323.455 pg/mL and 532.086 pg/mL | Plasma Insulin Over Time (Fig 2B) ([1]; time 1, individual animals): 2.471 ng/mL and 8.448 ng/mL and 6.286 ng/mL and 2.7997 ng/mL and 8.046 ng/mL and 6.547 ng/mL and 6.926 ng/mL and 4.435 ng/mL | Plasma Glucagon Over Time (Fig 2C) ([1]; time 2, individual animals): 677.742 pg/mL and 147.407 pg/mL and 198.886 pg/mL and 95.5346 pg/mL and 199.272 pg/mL and 184.367 pg/mL and 336.315 pg/mL and 387.077 pg/mL | Plasma Insulin Over Time (Fig 2B) ([1]; time 2, individual animals): 2.6557 ng/mL and 2.936 ng/mL and 3.027 ng/mL and 0.7256 ng/mL and 3.203 ng/mL and 2.271 ng/mL and 3.072 ng/mL and 2.0183 ng/mL | Plasma Glucagon Over Time (Fig 2C) ([1]; time 4, individual animals): 426.615 pg/mL and 76.1995 pg/mL and 36.6178 pg/mL and 86.9884 pg/mL and 83.1703 pg/mL and 202.015 pg/mL and 219.163 pg/mL and 202.907 pg/mL | Plasma Insulin Over Time (Fig 2B) ([1]; time 4, individual animals): 2.117 ng/mL and 1.616 ng/mL and 1.477 ng/mL and 1.139 ng/mL and 1.988 ng/mL and 2.587 ng/mL and 2.052 ng/mL | Plasma Glucagon Over Time (Fig 2C) ([1]; time 24, individual animals): 168.326 pg/mL and 107.348 pg/mL and 18.8494 pg/mL and 200.464 pg/mL and 140.291 pg/mL and 122.096 pg/mL and 264.039 pg/mL and 261.868 pg/mL | Plasma Insulin Over Time (Fig 2B) ([1]; time 24, individual animals): 1.016 ng/mL and 0.9428 ng/mL and 0.1505 ng/mL and 1.222 ng/mL and 1.548 ng/mL and 1.3655 ng/mL and 1.314 ng/mL and 1.563 ng/mL | glucagon secretion from islets ([3]; GPR40-/- mouse islets): abolished | Islet Glucagon ([3]; KO mouse islets, G2, 1uM): 8.295 pg/ml/ islet and 16.584 pg/ml/ islet and 5.331 pg/ml/ islet and 9.664 pg/ml/ islet and 1.86 pg/ml/ islet and 24.388 pg/ml/ islet and 22.826 pg/ml/ islet and 23.18 pg/ml/ islet and 16.858 pg/ml/ islet and 27.237 pg/ml/ islet | Islet insulin ([3]; KO mouse islets, G2, 1uM): 0.224 and 0.186 and 0.933 and 0.721 and 1.124 and 0.514 and 0.261 and 0.152 and 0.181 and 0.215 | Islet Glucagon, mean ([3]; KO mouse islets, G2, 1uM): 15.6223 pg/ml/ islet | Islet insulin, mean ([3]; KO mouse islets, G2, 1uM): 0.4511 | Islet Glucagon ([3]; KO mouse islets, G16, 1uM): 5.183 pg/ml/ islet and 12.803 pg/ml/ islet and 9.635 pg/ml/ islet and 3.883 pg/ml/ islet and 11.858 pg/ml/ islet and 6.688 pg/ml/ islet and 0.121 pg/ml/ islet and 5.519 pg/ml/ islet and 6.26 pg/ml/ islet and 3.878 pg/ml/ islet | Islet insulin ([3]; KO mouse islets, G16, 1uM): 2.959 and 3.403 and 3.966 and 2.272 and 3.839 and 3.783 and 2.961 and 3.664 and 2.593 and 1.94 | Islet Glucagon, mean ([3]; KO mouse islets, G16, 1uM): 6.5828 pg/ml/ islet | Islet insulin, mean ([3]; KO mouse islets, G16, 1uM): 3.138 | Islet Glucagon ([3]; WT mouse islets, G2, 1uM): 55.828 pg/ml/ islet and 87.628 pg/ml/ islet and 54.498 pg/ml/ islet and 21.019 pg/ml/ islet and 35.248 pg/ml/ islet and 60.615 pg/ml/ islet and 73.937 pg/ml/ islet and 63.3 pg/ml/ islet and 50.656 pg/ml/ islet and 33.503 pg/ml/ islet | Islet insulin ([3]; WT mouse islets, G2, 1uM, listed as L-005306254): 0.53 and 1.151 and 0.66 and 1.39 and 2.61 and 1.55 and 1.058 and 0.71 and 0.4565 and 0.7725 | Islet Glucagon, mean ([3]; WT mouse islets, G2, 1uM): 53.6232 pg/ml/ islet | Islet insulin, mean ([3]; WT mouse islets, G2, 1uM): 1.0888 | Islet Glucagon ([3]; WT mouse islets, G16, 1uM): 29.473 pg/ml/ islet and 34.729 pg/ml/ islet and 57.354 pg/ml/ islet and 33.737 pg/ml/ islet and 7.252 pg/ml/ islet and 14.915 pg/ml/ islet and 23.157 pg/ml/ islet and 23.385 pg/ml/ islet and 38.776 pg/ml/ islet | Islet insulin ([3]; WT mouse islets, G16, 1uM, listed as L-005306254): 12.607 and 12.478 and 13.17 and 12.065 and 9.432 and 10.077 and 12.044 and 12.3 and 10.845 and 11.903 | Islet Glucagon, mean ([3]; WT mouse islets, G16, 1uM): 29.1976 pg/ml/ islet | Islet insulin, mean ([3]; WT mouse islets, G16, 1uM): 11.6921 | glucagon secretion from islets ([3]; WT mouse islets): significantly elevated
